Our source for the IC50 values is patent publication US20240109893A1, “PREPARATION AND APPLICATION METHOD OF HETEROCYCLIC COMPOUNDS AS KRAS INHIBITOR” (SHANGHAI KECHOW PHARMA, INC., priority 2020, published 2024).

For the experiment, the system named is H358 cells. The experiment can be described thus: Cell activity experiment: activity test of H358 cells (MTT, 5 days). Conditions: 5 days incubation, absorbance 492 nm. It counts as cell-based. The method, boiled down: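 Viability was read by MTT: 4 h dye incubation, DMSO solubilisation, absorbance at 492 nm. This followed 5 days' treatment (37° C., 5% CO2) of H358 cells, pre-grown 24 h, with eight-point 3-fold dilutions up to 10000 nM final, 0.5% DMSO final, triplicate wells.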

In general, IC50 refers to the midpoint of a concentration-inhibition curve. Higher therefore signals weaker potency. Regarding `C=C(F)C(=O)N1CCN(c2nc(OC[C@@]34CCCN3C[C@H](F)C4)nc3c(F)c(-c4cccc5c4C4CC4C5)ncc23)C[C@@H]1CC#N` (some centres unmarked) [Example 68], the IC50 (Homo sapiens, NCI-H358, 120 h) was 0.33 nM.
Take `C=CC(=O)N1CCN(c2nc(OC[C@@]34CCCN3C[C@H](F)C4)nc3c(F)c(-c4cccc5c4[C@H]4C[C@H]4C5)ncc23)C[C@@H]1CC#N` [Example 69]: the IC50 (Homo sapiens, NCI-H358, 120 h) worked out at 1.8 nM.
On the same count and under the same terms, to `C=C(F)C(=O)N1CCN(c2nc(OC[C@@]34CCCN3C[C@H](F)C4)nc3c(F)c(-c4cccc5c4[C@H]4C[C@H]4C5)ncc23)C[C@@H]1CC#N` [Example 70] belongs 7 nM; to `C=CC(=O)N1CCN(c2nc(OC[C@@]34CCCN3C[C@H](F)C4)nc3c(F)c(-c4cccc5c4[C@@H]4C[C@@H]4C5)ncc23)C[C@@H]1CC#N` [Example 71], 0.2 nM.
Consider `C=C(F)C(=O)N1CCN(c2nc(OC[C@@]34CCCN3C[C@H](F)C4)nc3c(F)c(-c4cccc5c4[C@@H]4C[C@@H]4C5)ncc23)C[C@@H]1CC#N` [Example 72], for which it took 8 nM to reach half-maximal inhibition (Homo sapiens, NCI-H358, 120 h) (IC50).
For `C=CC(=O)N1CCN(c2nc(OC[C@@H]3CCCN3C)nc3c(F)c(-c4cccc5c4CCCC5)c(Cl)cc23)C[C@@H]1CC#N` [Example 74], the IC50 is 25 nM.
For `C=CC(=O)N1CCN(c2nc(OC[C@@H]3CCCN3C)nc3cc(-c4cccc5c4CCCC5)c(Cl)cc23)C[C@@H]1CC#N` [Example 75, 2-((S)-1-acryloyl-4-(6-chloro-2-(((S)-1-methylpyrrolidin-2-yl)methoxy)-7-(5,6,7,8-tetrahydronaphthalen-1-yl)quinazolin-4-yl)piperazin-2-yl)acetonitrile], the IC50 (Homo sapiens, NCI-H358, 120 h) is 86 nM.
`C=CC(=O)N1CCN(c2nc(OC[C@@H]3CCCN3C)nc3c(F)c(-c4cccc5c4CCCC5)c(Cl)cc23)CC1` [Example 76, 1-(4-(6-chloro-8-fluoro-2-(((S)-1-methylpyrrolidin-2-yl)methoxy)-7-(5,6,7,8-tetrahydronaphthalen-1-yl)quinazolin-4-yl)piperazin-1-yl)prop-2-en-1-one]: the IC50 (Homo sapiens, NCI-H358, 120 h) was found to be 160 nM.
`C=CC(=O)N1CCN(c2nc(OC[C@@H]3CCCN3C)nc3nc(-c4cccc5c4CCCC5)ccc23)C[C@@H]1CC#N` [Example 77, 2-((S)-1-acryloyl-4-(2-(((S)-1-methylpyrrolidin-2-yl)methoxy)-7-(5,6,7,8-tetrahydronaphthalen-1-yl)pyridino[2,3-d]pyrimidin-4-yl)piperazin-2-yl)acetonitrile]: where the note is “Homo sapiens, NCI-H358, 120 h”, the IC50 was 55 nM.
For `C=C(F)C(=O)N1CCN(c2nc(OC[C@@H]3CCCN3C)nc3cc(-c4cccc5cccc(Cl)c45)ccc23)C[C@@H]1CC#N` [Example 78], for the setting “Homo sapiens, NCI-H358, 120 h”, the IC50 turned out to be 60 nM.
On the same count and under the same terms, to `C=CC(=O)N1CCN(c2nc(OC[C@@H]3C[C@@H](F)CN3C)nc3cc(-c4cccc5cccc(Cl)c45)ccc23)C[C@@H]1CC#N` [Example 79, 2-((S)-1-acryloyl-4-(7-(8-chloronaphthalen-1-yl)-2-((((2S,4R)-4-fluoro-1-methylpyrrolidin-2-yl]methoxy))quinazolin-4-yl)piperazin-2-yl)acetonitrile] belongs 20 nM; to `C=C(F)C(=O)N1CCN(c2nc(OC[C@@H]3C[C@@H](F)CN3C)nc3cc(-c4cccc5cccc(Cl)c45)ccc23)C[C@@H]1CC#N` [Example 80], 65 nM.
For `C=CC(=O)N1CCN(c2nc(OCC34CCCN3CCC4)nc3cc(-c4cccc5cccc(Cl)c45)ccc23)C[C@@H]1CC#N` [Example 81], for the setting “Homo sapiens, NCI-H358, 120 h”, the IC50 came out at 5.5 nM.
`C=C(F)C(=O)N1CCN(c2nc(OCC34CCCN3CCC4)nc3cc(-c4cccc5cccc(Cl)c45)ccc23)C[C@@H]1CC#N` [Example 82, (S)-2-(4-(7-(8-chloronaphthalen-1-yl)-2-((tetrahydro-1H-pyrrolizin-7a(5H)-yl)methoxy)quinazolin-4-yl)-1-(2-fluoroacryloyl)piperazin-2-yl)acetonitrile] displayed an IC50 (Homo sapiens, NCI-H358, 120 h) of 12 nM.
Molecule `C=CC(=O)N1CCN(c2nc(OC[C@@]34CCCN3C[C@H](F)C4)nc3cc(-c4cccc5cccc(Cl)c45)ccc23)C[C@@H]1CC#N` [Example 83] gave an IC50 (Homo sapiens, NCI-H358, 120 h) of 3.2 nM.
`C=C(F)C(=O)N1CCN(c2nc(OC[C@@]34CCCN3CC(F)C4)nc3cc(-c4cccc5cccc(Cl)c45)ccc23)C[C@@H]1CC#N` (some centres unmarked) [Example 84] returned an IC50 (Homo sapiens, NCI-H358, 120 h) of 10 nM.
The same measure, in the same setting: the result for `C=CC(=O)N1CC[C@@H]2[C@H]1CN2c1nc(OC[C@@H]2CCCN2C)nc2cc(-c3cccc4cccc(Cl)c34)ccc12` [Example 85, 1-((1R,5R)-6-(7-(8-chloronaphthalen-1-yl)-2-(((S)-1-methylpyrrolidin-2-yl)methoxy)quinazolin-4-yl)-2,6-diazabicyclo[3.2.0]hept-2-yl)prop-2-en-1-one] reads 6 nM; that for `C=CC(=O)N1CCN(c2nc(OC[C@@H]3CCCN3C)nc3cc(-c4cccc5ccc(F)c(Cl)c45)ccc23)C[C@@H]1CC#N` [Example 93, 2-((S)-1-acryloyl-4-(7-(8-chloro-7-fluoronaphthalen-1-yl)-2-(((S)-1-methylpyrrolidin-2-yl)methoxy)quinazolin-4-yl)piperazin-2-yl)acetonitrile], 6.5 nM; that for `C=C(F)C(=O)N1CCN(c2nc(OC[C@@H]3CCCN3C)nc3cc(-c4cccc5ccc(F)c(Cl)c45)ccc23)C[C@@H]1CC#N` [Example 94, 2-((S)-4-(7-(8-chloro-7-fluoronaphthalen-1-yl)-2-(((S)-1-methylpyrrolidin-2-yl)methoxy)quinazolin-4-yl)-1-(2-fluoroacryloyl)piperazin-2-yl)acetonitrile], 15 nM.
The molecule `C=CC(=O)N1CCN(c2nc(OC[C@@H]3C[C@@H](F)CN3C)nc3cc(-c4cccc5ccc(F)c(Cl)c45)ccc23)C[C@@H]1CC#N` [Example 95] yielded an IC50 (Homo sapiens, NCI-H358, 120 h) of 8 nM.
Take `C=C(F)C(=O)N1CCN(c2nc(OC[C@@H]3C[C@@H](F)CN3C)nc3cc(-c4cccc5ccc(F)c(Cl)c45)ccc23)C[C@@H]1CC#N` [Example 96]: under “Homo sapiens, NCI-H358, 120 h”, the IC50 was found to be 25 nM.
Turning to `C=CC(=O)N1CCN(c2nc(OCC34CCCN3CCC4)nc3cc(-c4cccc5ccc(F)c(Cl)c45)ccc23)C[C@@H]1CC#N` [Example 97, (S)-2-(1-acryloyl-4-(7-(8-chloro-7-fluoronaphthalen-1-yl)-2-((tetrahydro-1H-pyrrolizin-7a(5H)-yl)methoxy)quinazolin-4-yl)piperazin-2-yl)acetonitrile], where the note is “Homo sapiens, NCI-H358, 120 h”, the midpoint of inhibition, the IC50, lay at 0.49 nM.
The molecule `C=C(F)C(=O)N1CCN(c2nc(OCC34CCCN3CCC4)nc3cc(-c4cccc5ccc(F)c(Cl)c45)ccc23)C[C@@H]1CC#N` [Example 98, (S)-2-(4-(7-(8-chloro-7-fluoronaphthalen-1-yl)-2-((tetrahydro-1H-pyrrolizin-7a(5H)-yl)methoxy)quinazolin-4-yl)-1-(2-fluoroacryloyl)piperazin-2-yl)acetonitrile] came in with an IC50 (Homo sapiens, NCI-H358, 120 h) of 8 nM.
Under “Homo sapiens, NCI-H358, 120 h”, `C=CC(=O)N1CCN(c2nc(OCC34CCCN3C[C@H](F)C4)nc3cc(-c4cccc5ccc(F)c(Cl)c45)ccc23)C[C@@H]1CC#N` (some centres unmarked) [Example 99] returned an IC50 of 0.34 nM.
On the same count and under the same terms, the result for `C=C(F)C(=O)N1CCN(c2nc(OCC34CCCN3C[C@H](F)C4)nc3cc(-c4cccc5ccc(F)c(Cl)c45)ccc23)C[C@@H]1CC#N` (some centres unmarked) [Example 100] reads 6 nM; that for `C=CC(=O)N1CC[C@@H]2[C@H]1CN2c1nc(OC[C@@H]2CCCN2C)nc2cc(-c3cccc4ccc(F)c(Cl)c34)ccc12` [Example 101, 1-((1R,5R)-6-(7-(8-chloro-7-fluoronaphthalen-1-yl)-2-(((S)-1-methylpyrrolidin-2-yl)methoxy)quinazolin-4-yl)-2,6-diazabicyclo[3.2.0]hept-2-yl)prop-2-en-1-one], 5 nM.
